# Source: patent US11787839B2, “Targeting α2δ-1-bound glutamate receptors for treating diseases and disorders” (Board of Regents, The University of Texas System, priority 2017, dated 2023)
# Tests used:
# [1] = system: NMDARs of spinally projecting PVN neurons; experiment: Recordings of spinally projecting PVN neurons in WT and Cacna2d1 KO mouse slices (Ang II); assay type: cell-based; conditions: Ang II 2 μmol/L
# Source text: Animals: 10- to 12-week-old male Sprague Dawley rats were used (Harlan Sprague Dawley, Indianapolis, Ind.) and both male and female mice (C57BL/6 genetic background) in the experiments. Two breeding pairs of Cacna2d1+/− mice were purchased from Medical Research Council (Harwell Didcot, Oxfordshire, UK), and Cacna2d1−/− (knockout) mice and Cacna2d1+/+ (wild-type) littermates were obtained by breeding the heterozygous mice. Because no sex differences were found in the effect of Ang II on synaptic NMDAR activity, electrophysiological data from male and female mice were pooled. All surgical preparation and experimental protocols were approved by the Animal Care and Use Committee of The University of Texas MD Anderson Cancer Center and conformed to the National Institutes of Health guidelines for the ethical use of animals. All efforts were made to minimize both the suffering and number of animals used.
# Retrograde labeling of spinally projecting PVN neurons: Rats or mice were anesthetized with 2-3% isoflurane, and their spinal cords at the T1-T4 level were exposed through dorsal laminectomy. A fluorescent microsphere suspension (FluoSpheres, 0.04 μm; Molecular Probes, Invitrogen, Eugene, Oreg.) was pressure ejected (Nanoject II Microinjectors, Drummond Scientific Company, Broomall, Pa.) bilaterally into the IML region of the spinal cord in six separate 50-nl injections using a glass micropipette (tip diameter, 20-30 μm). The tracer injection was monitored through a surgical microscope (Li et al., 2002, 2003). The wound was closed with sutures after injection. Animals were returned to their cages for 4-7 days, which was sufficient time to permit the tracer to be retrogradely transported to the PVN. The animals were inspected daily for motor activity, signs of infection, and food and water intake.
# Brain slice preparation: Four to seven days after fluorescent tracer injection, the animals were anesthetized with isoflurane and rapidly decapitated. The brain was quickly removed and placed in ice-cold artificial CSF (aCSF) saturated with 95% O2 and 5% CO2. A tissue block containing the hypothalamus was cut from the brain and glued onto the stage of a vibratome (Leica VT1000 S, Leica Biosystems Inc. Buffalo Grove, Ill.) as described previously (Li et al., 2003; Ye et al., 2011). […]
# Electrophysiological recordings: The fluorescence-labeled neurons located in the medial one-third of the PVN area between the third ventricle and the fornix were selected for recording (Li et al., 2002, 2003). […]
# The miniature excitatory postsynaptic currents (mEPSCs) were recorded in the presence of 1 μmol/L tetrodotoxin (TTX) and 20 μmol/L bicuculline at a holding potential of −60 mV (Li et al., 2003; Ye et al., 2011). […]
# [2] = system: rats treated with the Cacna2d1 vector; experiment: Withdrawal thresholds in rats overexpressing Cacna2d1 (lentiviral vector); assay type: in vivo, rat; conditions: for pain hypersensitivity induced by Cacna2d1 overexpression (tactile and pressure withdrawal thresholds): Cacna2d1 vector rats, AP5, peptide, gabapentin intrathecal, memantine systemic
# [3] = molecular target: T1, α2δ-1-Cav2.2 interaction (Rattus norvegicus, UniProt P54290+Q02294); experiment: Co-IP of α2δ-1 and Cav2.2 in spinal cord after intrathecal injection; assay type: in vivo; conditions: SNL and sham rats, intrathecal 1 μg, 60 min
# T1 construct: from tissue; host or cells: rat dorsal spinal cord (L5-L6) membrane extracts after intrathecal injection
# Method: Whole-cell IBa was elicited by a depolarizing pulse to 0 mV for 200 ms from a holding potential of −90 mV. […] Data are means±s.e.m. The numbers of cells recorded in each group are indicated in parentheses (cells from 4 separate experiments). […] The dorsal spinal cord at the L5 and L6 level was removed 60 min after intrathecal injection of α2δ-1Tat peptide (1 μg) or control peptide (1 μg). Membrane proteins were immunoprecipitated first with a rabbit anti-α2δ-1 or anti-IgG antibody. Western immunoblotting was performed by using an anti-Cav2.2 antibody. S, sham; L, SNL; C, control peptide; P, α2δ-1Tat peptide. Data are means±s.e.m.
# Coimmunoprecipitation using spinal cord tissue membrane extracts: The dorsal quadrants of rat spinal cords at the L5 and L6 levels or the frozen lumbar spinal cord tissues from four human donors (2 males and 2 females, age ranged 18-42 years, post-mortem interval of 17-29 h; supplied by University of Maryland Brain and Tissue Bank) were dissected and homogenized in ice-cold hypotonic buffer (20 mM Tris [pH 7.4], 1 mM CaCl2, 1 mM MgCl2, and protease inhibitors) for membrane preparation. The nuclei and unbroken cells were removed by centrifugation at 300×g for 5 min. The supernatant was centrifuged for 20 min at 21,000×g. […]
# T1 sequence (P54290 25-944 limits assumed): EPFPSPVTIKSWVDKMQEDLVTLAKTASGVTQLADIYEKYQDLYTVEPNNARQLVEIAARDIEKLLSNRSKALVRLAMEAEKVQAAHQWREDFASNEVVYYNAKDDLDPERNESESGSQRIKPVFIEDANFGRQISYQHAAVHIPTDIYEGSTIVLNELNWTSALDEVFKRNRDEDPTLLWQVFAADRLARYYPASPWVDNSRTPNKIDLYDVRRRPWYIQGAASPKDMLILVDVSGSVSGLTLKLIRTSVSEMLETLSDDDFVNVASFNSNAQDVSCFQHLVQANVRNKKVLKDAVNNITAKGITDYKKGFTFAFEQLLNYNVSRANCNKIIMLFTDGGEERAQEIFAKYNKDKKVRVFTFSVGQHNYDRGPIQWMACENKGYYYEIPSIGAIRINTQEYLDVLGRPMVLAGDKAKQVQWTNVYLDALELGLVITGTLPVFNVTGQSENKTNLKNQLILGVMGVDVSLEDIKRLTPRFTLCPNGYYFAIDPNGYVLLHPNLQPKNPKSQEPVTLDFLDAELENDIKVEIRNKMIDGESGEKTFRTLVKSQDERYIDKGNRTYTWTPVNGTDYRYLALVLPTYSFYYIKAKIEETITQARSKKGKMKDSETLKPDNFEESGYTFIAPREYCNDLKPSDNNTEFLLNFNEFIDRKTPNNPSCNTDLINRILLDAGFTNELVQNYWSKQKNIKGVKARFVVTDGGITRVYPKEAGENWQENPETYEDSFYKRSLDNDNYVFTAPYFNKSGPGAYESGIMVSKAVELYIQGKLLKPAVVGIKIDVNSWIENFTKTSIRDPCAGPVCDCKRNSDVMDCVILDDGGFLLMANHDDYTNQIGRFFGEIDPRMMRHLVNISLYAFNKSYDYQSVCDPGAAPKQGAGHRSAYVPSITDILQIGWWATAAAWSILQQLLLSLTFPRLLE
# T1 sequence (Q02294 whole entry): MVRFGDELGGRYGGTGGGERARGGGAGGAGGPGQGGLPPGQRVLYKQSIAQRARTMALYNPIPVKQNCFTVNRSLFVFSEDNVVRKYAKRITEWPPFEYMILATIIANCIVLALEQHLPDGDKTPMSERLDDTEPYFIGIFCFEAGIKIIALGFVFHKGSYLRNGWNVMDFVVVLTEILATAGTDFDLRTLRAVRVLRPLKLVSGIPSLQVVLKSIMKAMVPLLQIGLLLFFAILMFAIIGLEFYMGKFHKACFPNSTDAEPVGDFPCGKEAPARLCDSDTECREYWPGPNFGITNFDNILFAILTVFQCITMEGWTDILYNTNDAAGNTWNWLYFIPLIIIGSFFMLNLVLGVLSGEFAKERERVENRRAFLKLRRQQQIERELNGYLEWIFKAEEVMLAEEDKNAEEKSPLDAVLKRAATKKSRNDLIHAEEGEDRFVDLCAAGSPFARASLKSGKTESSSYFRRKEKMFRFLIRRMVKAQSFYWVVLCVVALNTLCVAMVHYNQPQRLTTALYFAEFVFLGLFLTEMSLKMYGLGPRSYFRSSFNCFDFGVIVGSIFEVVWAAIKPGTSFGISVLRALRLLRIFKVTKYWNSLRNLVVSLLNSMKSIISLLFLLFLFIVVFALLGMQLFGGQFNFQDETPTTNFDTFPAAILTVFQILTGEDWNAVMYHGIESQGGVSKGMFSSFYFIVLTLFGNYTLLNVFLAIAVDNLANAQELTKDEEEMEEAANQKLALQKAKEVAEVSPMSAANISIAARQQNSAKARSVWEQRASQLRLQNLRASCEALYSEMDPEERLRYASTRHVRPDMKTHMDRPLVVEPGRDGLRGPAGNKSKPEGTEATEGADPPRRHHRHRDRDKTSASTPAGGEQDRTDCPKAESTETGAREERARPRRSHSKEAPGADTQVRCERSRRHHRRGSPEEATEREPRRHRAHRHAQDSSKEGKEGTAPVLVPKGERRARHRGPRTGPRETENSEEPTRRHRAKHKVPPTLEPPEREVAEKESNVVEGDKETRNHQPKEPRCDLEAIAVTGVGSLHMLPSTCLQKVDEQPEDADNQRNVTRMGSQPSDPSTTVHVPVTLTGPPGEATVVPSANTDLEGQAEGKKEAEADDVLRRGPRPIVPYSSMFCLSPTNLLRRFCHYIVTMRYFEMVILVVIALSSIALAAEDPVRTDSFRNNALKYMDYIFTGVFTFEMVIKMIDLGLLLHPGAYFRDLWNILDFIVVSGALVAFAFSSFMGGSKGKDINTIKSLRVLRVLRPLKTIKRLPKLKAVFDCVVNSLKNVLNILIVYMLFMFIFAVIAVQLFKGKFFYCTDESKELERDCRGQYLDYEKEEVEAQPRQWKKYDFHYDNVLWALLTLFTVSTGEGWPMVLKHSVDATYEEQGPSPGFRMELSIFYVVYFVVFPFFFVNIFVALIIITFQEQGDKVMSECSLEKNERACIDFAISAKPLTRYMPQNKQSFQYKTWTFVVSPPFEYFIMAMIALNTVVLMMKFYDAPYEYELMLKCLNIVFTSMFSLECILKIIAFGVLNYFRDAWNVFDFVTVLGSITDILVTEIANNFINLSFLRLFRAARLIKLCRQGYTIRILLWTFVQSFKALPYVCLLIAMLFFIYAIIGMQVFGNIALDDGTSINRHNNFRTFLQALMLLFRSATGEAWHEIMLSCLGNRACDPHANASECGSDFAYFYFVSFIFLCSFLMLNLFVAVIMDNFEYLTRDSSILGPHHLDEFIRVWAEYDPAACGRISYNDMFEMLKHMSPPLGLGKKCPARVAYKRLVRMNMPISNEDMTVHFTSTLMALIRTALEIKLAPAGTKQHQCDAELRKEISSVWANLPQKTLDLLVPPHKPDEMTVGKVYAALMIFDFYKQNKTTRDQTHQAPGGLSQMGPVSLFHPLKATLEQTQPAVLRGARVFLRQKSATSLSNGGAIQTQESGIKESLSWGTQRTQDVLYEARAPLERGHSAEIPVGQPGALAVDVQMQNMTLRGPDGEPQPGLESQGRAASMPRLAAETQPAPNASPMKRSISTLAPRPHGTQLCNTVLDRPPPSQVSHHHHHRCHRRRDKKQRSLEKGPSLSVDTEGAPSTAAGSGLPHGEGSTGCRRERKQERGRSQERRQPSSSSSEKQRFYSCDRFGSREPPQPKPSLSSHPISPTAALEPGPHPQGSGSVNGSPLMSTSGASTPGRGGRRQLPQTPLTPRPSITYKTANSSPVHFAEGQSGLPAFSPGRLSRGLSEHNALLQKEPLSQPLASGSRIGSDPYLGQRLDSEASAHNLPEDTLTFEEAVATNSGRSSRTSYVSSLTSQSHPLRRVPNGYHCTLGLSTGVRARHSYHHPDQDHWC
substance,measurement,setting,value
"Ang II: angiotensin II, obtained from Sigma (DRVYIHPF; Angiotensin-2; UniProt P01019 25-32, looked up)",amplitude of puff NMDA-elicited currents,[1]; Cacna2d1−/− mice,had no effect
same,frequency of mEPSCs,[1]; Cacna2d1−/− mice,had no effect
same,NMDAR-mediated frequency of mEPSCs,[1]; wild-type mice,markedly increased
same,amplitude of puff NMDA-elicited currents,[1]; wild-type mice,markedly increased
"YGRKKRRQRRRVSGLNPSLWSIFGLQFILLWLVSGSRHYLW (a2d1 peptide) [α2δ-1Tat peptide, 30-amino-acid peptide mimicking the C-terminal domain of α2δ-1 fused to the cell-penetrating peptide Tat]",pain hypersensitivity induced by Cacna2d1 overexpression (tactile and pressure withdrawal thresholds),[2],attenuates
same,pain hypersensitivity induced by Cacna2d1 overexpression (tactile and pressure withdrawal thresholds),[2]; listed as a2d-1Tat peptide,similarly reversed
same,withdrawal thresholds in rats treated with the control vector,"[2]; control vector rats, intrathecal injection",had no effect
same,interaction between α2δ-1 and Cav2.2 proteins in the spinal cord tissue,[3],lack of an effect
same,interaction between α2δ-1 and Cav2.2 proteins in the spinal cord tissue,[3]; listed as α2δ-1 Tat peptide,had no effect
